According to ChEMBL document CHEMBL1157415, “Isolation, structure elucidation, and synthesis of cytotoxic tryptanthrin analogues from Phaius mishmensis” (J Nat Prod, 2008):
pIC50: −log10 of the molar value.

Key:
Type in all cases: functional, cell-based
[1] = system: MCF7; test: Cytotoxicity against human MCF7 cells
[2] = system: NCI-H460; test: Cytotoxicity against human NCI-H460 cells
[3] = system: SF-268; test: Cytotoxicity against human SF268 cells

SMILES | pIC50 ([1]; Homo sapiens, MCF7) | pIC50 ([2]; Homo sapiens, NCI-H460) | pIC50 ([3]; Homo sapiens, SF-268) | pIC50 ([1]; mcf7) | pIC50 ([2]; nci-h460) | pIC50 ([3]; sf-268)
O=C(CC1(O)c2ccccc2-n2c1nc1ccccc1c2=O)c1ccccc1 (centres undefined) | < 4.30 | < 4.30 | < 4.30 | – | – | –
CCC(=O)C(C)C1(O)c2ccccc2-n2c1nc1ccccc1c2=O (centres undefined) | 4.80 | 4.86 | 4.61 | – | – | –
CCCCCCCCC(=O)CC1(O)c2ccccc2-n2c1nc1ccccc1c2=O (centres undefined) | 4.39 | 4.37 | < 4.30 | – | – | –
O=C1CCCC1C1(O)c2ccccc2-n2c1nc1ccccc1c2=O (stereo in doubt; 11) | – | – | – | 4.71 | 4.72 | 4.46
O=C1CCCC1C1(O)c2ccccc2-n2c1nc1ccccc1c2=O (stereo in doubt; 12) | 4.68 | 4.69 | 4.47 | – | – | –
O=C1/C(=c2\c3ccccc3n3c(=O)c4ccccc4nc23)Nc2ccccc21 [CANDIDINE] | < 4.30 | < 4.30 | < 4.30 | – | – | –
COC(=O)C1(O)c2ccccc2N=C2C(=O)c3ccccc3N21 (centres undefined) [METHYLISATOID] | < 4.30 | < 4.30 | < 4.30 | – | – | –
O=C1c2c(O)cccc2-n2c1nc1ccccc1c2=O [PHAITANTHRIN C] | < 4.30 | < 4.30 | < 4.30 | – | – | –
O=C1OC[C@@]23Nc4ccccc4C(=O)N2c2ccccc2[C@@H]13 [PHAITANTHRIN D] | < 4.30 | < 4.30 | < 4.30 | – | – | –
COC(=O)c1c2ccccc2n2c(=O)c3ccccc3[nH]c12 [PHAITANTHRIN E] | < 4.30 | < 4.30 | < 4.30 | – | – | –
CC(=O)CC1(O)c2ccccc2-n2c1nc1ccccc1c2=O (centres undefined) [PHAITANTHRINS A] | 4.55 | 4.50 | 4.34 | – | – | –
COC(=O)CC1(O)c2ccccc2-n2c1nc1ccccc1c2=O (centres undefined) [PHAITANTHRINS B] | < 4.30 | < 4.30 | < 4.30 | – | – | –
O=C1c2ccccc2-n2c1nc1ccccc1c2=O [TRYPTANTHRIN] | 4.95 | 5.05 | 4.61 | – | – | –
